Test results published in US8906925B2, “Pyrido[4,3-B]indoles containing rigid moieties” (Medivation Technologies, Inc., priority 2008, dated 2014).

Tests used:
histamine receptor H1 = histamine receptor H1 (Homo sapiens, UniProt P35367); assay: Histamine H1 radioligand binding ([3H]Pyrilamine); conditions: for inhibition at 1 µM: read-out: Histamine Binding (1 μM) H1, percent inhibition of specific binding, 1 μM
Summary of the method: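 Values are percent inhibition of specific [3H]pyrilamine (1.2 nM) binding with compounds at ≤1 μM (1% DMSO vehicle); 180 min incubation at 25 °C, pH 7.4 Tris buffer, on CHO-expressed human H1 receptor; 1 μM pyrilamine defined nonspecific binding, bound ligand counted after filtration.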

[1] = target: T1, human recombinant histamine H2 receptor (Homo sapiens, UniProt P25021); assay: Histamine H2 radioligand binding ([125I]Aminopotentidine); conditions: read-out: Histamine Binding (1 μM) H2, percent inhibition of specific binding, 1 μM
T1 construct: expressed in transfected cells; host or cells: Chinese hamster ovary (CHO) K1 cells
Summary of the method: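 CHO-K1 cells expressing human recombinant H2 receptor, 50 mM phosphate buffer pH 7.4; compounds incubated with 0.1 nM [125I]aminopotentidine for 120 min at 25 °C. Nonspecific binding defined with 3 μM tiotidine; specifically bound radioligand counted after filtration and washing.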

[2] = target: human dopamine D2L receptor (Homo sapiens, UniProt P14416); assay: Dopamine D2L radioligand binding ([3H]Spiperone); conditions: percent inhibition of specific binding, compound at 1 μM; for inhibition at 1 µM: read-out: Inhibition of ligand binding, Dopamine D2L; for Inhibition of ligand binding, Dopamine D2L: 1 µM
Source text: Non-specific binding was estimated in the presence of […] Haloperidol. Receptor proteins were filtered and washed, the filters were then counted to determine [^3H]Spiperone specifically bound. […] Biochemical assay results are presented as the percent inhibition of specific binding in Table 9.

[3] = target: T2, human recombinant serotonin (5-Hydroxytryptamine) 5-HT2A receptor (Homo sapiens, UniProt P28223); assay: Serotonin 5-HT2A radioligand binding ([3H]Ketanserin); conditions: for inhibition at 1 µM: read-out: Inhibition of ligand binding, Serotonin 5-HT2A (percent inhibition of specific binding), compound at 1 μM; for inhibition at 0.1 µM: read-out: Inhibition of ligand binding, Serotonin 5-HT2A (percent inhibition of specific binding), compound at 0.1 μM
T2 construct: expressed in transfected cells; host or cells: Chinese hamster ovary (CHO-K1) cells
Procedure: Compounds of the invention were incubated with 0.5 nM [^3H]Ketanserin for 60 min. at 25° C. Non-specific binding was estimated in the presence of 1 μM Mianserin. Receptor proteins were filtered and washed, the filters were then counted to determine [^3H]Ketanserin specifically bound.

[4] = target: T3, human recombinant serotonin (5-Hydroxytryptamine) 5-HT2C receptor (Homo sapiens, UniProt P28335); assay: Serotonin 5-HT2C radioligand binding ([3H]Mesulergine); conditions: read-out: Inhibition of ligand binding, Serotonin 5-HT2C (percent inhibition of specific binding); for inhibition at 1 µM: compound at 1 μM; for inhibition at 0.1 µM: compound at 0.1 μM
T3 construct: expressed in transfected cells; host or cells: Chinese hamster ovary (CHO-K1) cells
T3 sequence (P28335 33-458): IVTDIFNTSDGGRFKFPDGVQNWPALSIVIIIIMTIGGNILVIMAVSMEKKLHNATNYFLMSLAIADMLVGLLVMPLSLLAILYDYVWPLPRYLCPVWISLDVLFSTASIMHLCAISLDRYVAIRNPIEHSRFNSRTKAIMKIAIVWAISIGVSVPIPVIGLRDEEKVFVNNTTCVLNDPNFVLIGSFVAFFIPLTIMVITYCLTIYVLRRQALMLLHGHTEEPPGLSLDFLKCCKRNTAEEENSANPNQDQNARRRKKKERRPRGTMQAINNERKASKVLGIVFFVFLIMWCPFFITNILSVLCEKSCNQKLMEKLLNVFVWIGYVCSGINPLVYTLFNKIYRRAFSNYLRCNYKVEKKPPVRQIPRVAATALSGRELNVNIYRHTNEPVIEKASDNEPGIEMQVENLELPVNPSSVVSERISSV
Summary of the method: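 Compounds tested at 1 μM or lower (1% DMSO vehicle) for displacement of 1 nM [3H]Mesulergine over 60 min at 25° C. Specific binding determined by filtration counting, with 1 μM Mianserin defining non-specific binding; values are percent inhibition.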

[5] = target: T4, human recombinant serotonin (5-Hydroxytryptamine) 5-HT6 receptor (Homo sapiens, UniProt P50406); assay: Serotonin 5-HT6 radioligand binding ([3H]LSD); conditions: read-out: Inhibition of ligand binding, Serotonin 5-HT6 (percent inhibition of specific binding); for inhibition at 1 µM: compound at 1 μM; for inhibition at 0.1 µM: compound at 0.1 μM
T4 construct: expressed in transfected cells; host or cells: human HeLa cells
Procedure: Compounds of the invention were incubated with 1.5 nM [3H]Lysergic acid diethylamide (LSD) for 120 min. at 37° C. […] Receptor proteins were filtered and washed, the filters were then counted to determine [3H]LSD specifically bound. Compounds were screened at 1 μM or lower, using 1% DMSO as vehicle. Biochemical assay results are presented as the percent inhibition of specific binding in Table 10.

[6] = target: human recombinant serotonin (5-Hydroxytryptamine) 5-HT7 receptor (Homo sapiens, UniProt P34969); assay: Serotonin 5-HT7 radioligand binding ([3H]LSD); conditions: read-out: Inhibition of ligand binding, Serotonin 5-HT7 (percent inhibition of specific binding); for inhibition at 1 µM: compound at 1 μM; for inhibition at 0.1 µM: compound at 0.1 μM
Source text: Receptor proteins were filtered and washed, the filters were then counted to determine [^3H]LSD specifically bound.

[7] = target: T5, human recombinant serotonin 5-HT1B receptor (Homo sapiens, UniProt P28222); assay: 5-HT1B radioligand binding competition assay ([3H]5-CT, CHO-K1 membranes); conditions: for 5-HT1B (5 μM) % Binding relative to bound radioligand: in duplicate, average
T5 construct: expressed in transfected cells; host or cells: CHO-K1 cell line, membrane extracts
Procedure: To determine the binding activity at the human recombinant serotonin 5-HT1B receptor of compounds of the invention, CHO-K1 cell line expressing the human 5-HT1B recombinant receptor was amplified to prepare membranes used for the radioligand binding assay throughout the study. Radioligand binding competition on 5-HT1B was performed by adding successively in the wells of a 96 well plate (Master Block, Greiner, 786201). […] The plate was incubated 60 min at 25° C. in a water bath and then filtered over GF/B filters (Perkin Elmer, 6005177, presoaked in 0.5% PE1 for 2 h at room temperature) with a Filtration unit (Perkin Elmer). The filters were washed 3× with 0.5 mL of ice-cold washing buffer (50 mM Tris pH 7.4). 50 μL Microscint 20 (Packard) was added and the plate was incubated 15 min on an orbital shaker and then counted with a TopCount™ for 1 min/well.
The reference value thus obtained for the test was compared to a historical value obtained from the same receptor and used to validate the experimental session. […] For replicate determinations, the maximum variability tolerated in the test was of +/−20% around the average of the replicates.
Compounds were tested for binding activity in the radioligand binding competition assay on human 5-HT1B receptor, at one concentration […], in duplicate. Dose-response data from test compounds were analyzed with XLfit (IDBS) software using nonlinear regression applied to a sigmoidal dose-response model.
Dose-response data was analyzed with XLfit (IDBS) software using non-linear regression applied to a sigmoidal dose-response model.

C57B1I6J mice = assay: Catalepsy in the mouse bar test (EPS model); format: in vivo; conditions: 2 mg/kg i.p.
Source text: Antipsychotic drugs are known to induce extrapyramidal syndrome (EPS) in animals and in humans. An animal model considered to be predictive of EPS is the mouse bar test, which measures cataleptic responses to pharmacological agents.
Male C57B1I6J mice from Jackson Laboratories (Bar Harbor, Me.) were used. Mice were received at 6-weeks of age. Upon receipt, mice were assigned unique identification numbers (tail marked) and were group housed with 4 mice/cage in OptiMICE ventilated cages. All animals remained housed in groups of four during the remainder of the study. All mice were acclimated to the colony room for at least two weeks prior to testing and were subsequently tested at an average age of 8 weeks. During the period of acclimation, mice were examined on a regular basis, handled, and weighed to assure adequate health and suitability. Animals were maintained on a 12 h/12 h light/dark cycle. The room temperature was maintained between 20 and 23° C. with a relative humidity maintained between 30% and 70%. Chow and water were provided ad libitum for the duration of the study. In each test, animals were randomly assigned across treatment groups.
The following compounds were used for this study. 1) Compound No. 83, 88 or 90 (0.03, 0.1, 0.3, 1, 3, 10, 30) was dissolved in 3% Tween in PBS and administered orally at a dose volume of 10 mL/kg; 2) Haloperidol (2 mg/kg) was dissolved in 10% DMSO and administered i.p. at a dose volume of 10 mL/kg.
The front paws of a mouse were placed on a horizontal metal bar raised 2″ above a Plexiglas platform and time was recorded for up to 30 seconds per trial. The test ended when the animal's front paws returned to the platform or after 30 seconds. The test was repeated three times and the average of the three trials was reported as the intensity index of catalepsy. Antipsychotic agents such as haloperidol cause rigidity as a side effect. Animals treated with haloperidol will hold on to the bar without moving for several minutes. Mice were brought to the activity experimental room for at least 1 h acclimation to the experimental room conditions prior to testing. Following injection of either vehicle, Compound No. 83, 88 or 90, or haloperidol, catalepsy was assessed at 3 time points: 30 min, 1 h, and 3 h. At the end of each trial, the apparatus was thoroughly cleaned with 70% ethanol.
Data were analyzed by analysis of variance (ANOVA) followed by post-hoc comparisons with Fisher Tests when appropriate. An effect was considered significant if p<0.05.

T5 sequence (P28222 whole entry): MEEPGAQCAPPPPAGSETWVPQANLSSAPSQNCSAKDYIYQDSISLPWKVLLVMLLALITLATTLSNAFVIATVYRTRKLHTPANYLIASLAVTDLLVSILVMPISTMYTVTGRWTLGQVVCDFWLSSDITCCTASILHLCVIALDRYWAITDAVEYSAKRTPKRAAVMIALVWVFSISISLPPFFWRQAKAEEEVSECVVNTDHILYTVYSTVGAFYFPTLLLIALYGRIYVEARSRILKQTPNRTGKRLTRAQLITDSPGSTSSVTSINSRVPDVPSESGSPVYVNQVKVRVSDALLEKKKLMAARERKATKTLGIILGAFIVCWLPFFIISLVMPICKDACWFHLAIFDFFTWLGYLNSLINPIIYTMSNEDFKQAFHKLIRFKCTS
T1 sequence (P25021 whole entry): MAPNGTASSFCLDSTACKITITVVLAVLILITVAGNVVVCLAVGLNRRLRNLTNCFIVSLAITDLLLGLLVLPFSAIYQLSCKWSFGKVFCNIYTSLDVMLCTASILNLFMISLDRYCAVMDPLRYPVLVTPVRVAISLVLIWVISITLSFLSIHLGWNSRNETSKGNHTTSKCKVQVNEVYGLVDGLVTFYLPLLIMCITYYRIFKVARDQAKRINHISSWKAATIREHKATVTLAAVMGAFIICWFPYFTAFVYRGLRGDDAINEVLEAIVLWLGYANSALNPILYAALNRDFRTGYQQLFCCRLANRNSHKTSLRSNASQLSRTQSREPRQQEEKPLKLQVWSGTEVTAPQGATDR
T2 sequence (P28223 whole entry): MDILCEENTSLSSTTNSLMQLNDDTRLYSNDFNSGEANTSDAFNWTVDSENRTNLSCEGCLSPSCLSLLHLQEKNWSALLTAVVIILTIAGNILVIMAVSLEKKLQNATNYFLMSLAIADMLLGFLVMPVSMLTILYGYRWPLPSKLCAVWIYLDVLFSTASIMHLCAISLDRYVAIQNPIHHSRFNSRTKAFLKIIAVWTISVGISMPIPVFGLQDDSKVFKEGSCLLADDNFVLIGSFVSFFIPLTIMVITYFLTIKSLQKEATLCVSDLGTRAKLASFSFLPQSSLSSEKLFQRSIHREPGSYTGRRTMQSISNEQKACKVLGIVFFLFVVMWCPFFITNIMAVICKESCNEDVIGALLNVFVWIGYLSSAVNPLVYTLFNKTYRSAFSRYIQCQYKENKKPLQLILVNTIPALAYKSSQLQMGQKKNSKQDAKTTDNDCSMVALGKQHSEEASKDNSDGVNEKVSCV
human recombinant serotonin (5-Hydroxytryptamine) 5-HT7 receptor, sequence (P34969 whole entry): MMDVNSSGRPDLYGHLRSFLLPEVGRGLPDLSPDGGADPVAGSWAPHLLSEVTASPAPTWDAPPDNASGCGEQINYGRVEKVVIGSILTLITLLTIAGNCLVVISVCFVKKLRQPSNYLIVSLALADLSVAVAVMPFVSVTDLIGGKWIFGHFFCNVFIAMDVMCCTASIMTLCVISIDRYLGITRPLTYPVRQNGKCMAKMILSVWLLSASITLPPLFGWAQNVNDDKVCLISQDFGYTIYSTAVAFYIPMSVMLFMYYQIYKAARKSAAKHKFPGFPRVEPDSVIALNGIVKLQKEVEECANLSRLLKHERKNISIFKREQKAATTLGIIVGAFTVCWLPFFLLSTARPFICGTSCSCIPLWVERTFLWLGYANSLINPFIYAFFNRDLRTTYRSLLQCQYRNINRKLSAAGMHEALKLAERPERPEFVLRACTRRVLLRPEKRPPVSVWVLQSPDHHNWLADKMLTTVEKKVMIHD
human dopamine D2L receptor, sequence (P14416 whole entry): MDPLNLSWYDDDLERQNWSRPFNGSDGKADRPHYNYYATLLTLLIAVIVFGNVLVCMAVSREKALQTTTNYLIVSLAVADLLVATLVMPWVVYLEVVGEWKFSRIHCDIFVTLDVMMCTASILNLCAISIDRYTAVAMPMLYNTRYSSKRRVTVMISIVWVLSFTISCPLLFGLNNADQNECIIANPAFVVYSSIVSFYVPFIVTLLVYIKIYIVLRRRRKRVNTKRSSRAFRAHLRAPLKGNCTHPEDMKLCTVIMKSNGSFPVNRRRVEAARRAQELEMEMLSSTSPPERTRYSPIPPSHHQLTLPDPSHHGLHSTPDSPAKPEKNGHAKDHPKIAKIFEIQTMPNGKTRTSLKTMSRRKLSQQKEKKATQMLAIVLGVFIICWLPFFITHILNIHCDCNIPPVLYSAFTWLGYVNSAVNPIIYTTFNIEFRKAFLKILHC
histamine receptor H1, sequence (P35367 whole entry): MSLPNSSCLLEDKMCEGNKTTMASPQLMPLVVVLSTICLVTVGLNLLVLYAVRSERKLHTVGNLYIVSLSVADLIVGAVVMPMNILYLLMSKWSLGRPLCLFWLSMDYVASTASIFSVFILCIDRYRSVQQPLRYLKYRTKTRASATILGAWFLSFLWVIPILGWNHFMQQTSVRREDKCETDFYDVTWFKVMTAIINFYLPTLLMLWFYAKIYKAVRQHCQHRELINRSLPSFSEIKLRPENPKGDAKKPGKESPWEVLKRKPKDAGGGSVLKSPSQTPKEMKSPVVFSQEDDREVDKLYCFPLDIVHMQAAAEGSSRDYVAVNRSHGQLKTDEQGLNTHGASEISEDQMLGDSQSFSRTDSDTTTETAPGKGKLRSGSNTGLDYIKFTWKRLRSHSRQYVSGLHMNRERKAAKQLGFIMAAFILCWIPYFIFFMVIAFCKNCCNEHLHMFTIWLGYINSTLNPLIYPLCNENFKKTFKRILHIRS
T4 sequence (P50406 whole entry): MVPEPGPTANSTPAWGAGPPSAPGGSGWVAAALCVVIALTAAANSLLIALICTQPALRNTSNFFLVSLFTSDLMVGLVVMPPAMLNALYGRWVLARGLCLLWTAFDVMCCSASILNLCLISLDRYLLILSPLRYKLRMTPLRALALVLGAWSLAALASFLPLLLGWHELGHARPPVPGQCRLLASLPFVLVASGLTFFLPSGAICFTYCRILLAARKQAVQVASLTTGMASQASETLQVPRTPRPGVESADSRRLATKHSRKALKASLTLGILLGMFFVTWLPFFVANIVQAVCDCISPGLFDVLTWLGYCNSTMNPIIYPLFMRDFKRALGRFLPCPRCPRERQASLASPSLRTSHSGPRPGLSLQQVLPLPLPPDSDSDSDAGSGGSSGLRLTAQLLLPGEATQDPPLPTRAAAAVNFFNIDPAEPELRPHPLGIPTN

SMILES | inhibition at 1 µM (histamine receptor H1) | inhibition at 1 µM [1] | inhibition at 1 µM [2] | inhibition at 1 µM [3] | inhibition at 1 µM [4] | inhibition at 1 µM [5] | inhibition at 1 µM [6] | 5-HT1B (5 μM) % Binding relative to bound radioligand [7] | Histamine Binding (1 μM) H1, percent inhibition of specific binding (histamine receptor H1) | Inhibition of ligand binding, Dopamine D2L [2] | inhibition at 0.1 µM [3] | inhibition at 0.1 µM [4] | inhibition at 0.1 µM [5] | inhibition at 0.1 µM [6] | also measured
C/C(=C\n1c2c(c3cc(C)ccc31)CN(C)CC2)c1cccnc1 [Compound 91, (E)-2,3,4,5-tetrahydro-2,8-dimethyl-5-(2-(pyridin-3-yl)prop-1-enyl)-1H-pyrido[4,3-b]indole] | 11% | 52% | 27% | 98% | 100% | 76% | 95% | 9% |  |  |  |  |  |  | IC50 [7]: 365 nM; % Binding relative to bound radioligand (5-HT1B) ([7]; Conc. 0.08 nM): 120%; % Binding relative to bound radioligand (5-HT1B) ([7]; Conc. 5 nM): 129%; % Binding relative to bound radioligand (5-HT1B) ([7]; Conc. 20 nM): 113%; % Binding relative to bound radioligand (5-HT1B) ([7]; Conc. 78 nM): 103%; % Binding relative to bound radioligand (5-HT1B) ([7]; Conc. 313 nM): 66%; % Binding relative to bound radioligand (5-HT1B) ([7]; Conc. 1250 nM): 31%; % Binding relative to bound radioligand (5-HT1B) ([7]; Conc. 20000 nM): 1%; % Binding relative to bound radioligand (5-HT1B) ([7]; Conc. 50000 nM): −5%
CN1CCc2c(c3cccc(Cl)c3n2CC(C)(O)c2ccncc2)C1 (stereo not drawn) [Compound 182, 1-(6-chloro-2-methyl-3,4-dihydro-1H-pyrido[4,3-b]indol-5(2H)-yl)-2-(pyridin-4-yl)propan-2-ol] | 26% | 53% | 8% | 91% | 93% | 47% | 54% | 3% |  |  |  |  |  |  | 
C/C(=C\n1c2c(c3cccc(F)c31)CN(C)CC2)c1ccncc1 [Compound 223, (E)-6-fluoro-2-methyl-5-(2-(pyridin-4-yl)prop-1-enyl)-2,3,4,5-tetrahydro-1H-pyrido[4,3-b]indole] | 6% | 44% | 96% | 95% | 93% | 103% | 91% | 4% | 11% | 97% | 97% | 81% | 104% | 67% | 
C/C(=C/n1c2c(c3cc(C)ccc31)CN(C)CC2)c1ccncc1 [Compound 224, (Z)-2,8-dimethyl-5-(2-(pyridin-4-yl)prop-1-enyl)-2,3,4,5-tetrahydro-1H-pyrido[4,3-b]indole] | 24% | 58% | 65% | 99% | 97% | 102% | 91% | 10% | 26% | 80% | 92% | 95% | 96% | 88% | 
O=C(CCCN1CCC(O)(c2ccc(Cl)cc2)CC1)c1ccc(F)cc1 [Haloperidol, haloperidol, reference compound] |  |  |  |  |  |  |  |  |  |  |  |  |  |  | catalepsy (bar test) (C57B1I6J mice): increased catalepsy
